The target in experiment [1] is Cyclin-dependent kinase 2/cyclin E (Homo sapiens, UniProt P24941). Put plainly: Inhibitory activity against Cyclin E-cyclin-dependent kinase 2 in enzymatic assay by measuring phosphorylation of RbING. It counts as protein-complex assay.
The target of experiment [2] is T1, Cyclin-dependent kinase 4/cyclin D1 (Homo sapiens, UniProt P11802). As to the kind of experiment: Inhibitory activity against Cyclin D1-cyclin-dependent kinase 4 in enzymatic assay by measuring phosphorylation of Rb21. It counts as protein-complex assay.
T1 sequence (P11802 whole entry): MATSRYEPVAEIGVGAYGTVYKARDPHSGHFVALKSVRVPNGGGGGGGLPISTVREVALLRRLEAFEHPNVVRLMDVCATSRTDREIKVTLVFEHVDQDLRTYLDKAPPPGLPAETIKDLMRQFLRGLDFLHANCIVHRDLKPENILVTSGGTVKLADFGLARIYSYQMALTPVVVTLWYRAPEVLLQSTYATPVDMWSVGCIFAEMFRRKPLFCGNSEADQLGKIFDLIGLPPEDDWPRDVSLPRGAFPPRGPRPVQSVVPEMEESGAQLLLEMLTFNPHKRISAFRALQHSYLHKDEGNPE
T1 sequence (P24385 whole entry, further chain): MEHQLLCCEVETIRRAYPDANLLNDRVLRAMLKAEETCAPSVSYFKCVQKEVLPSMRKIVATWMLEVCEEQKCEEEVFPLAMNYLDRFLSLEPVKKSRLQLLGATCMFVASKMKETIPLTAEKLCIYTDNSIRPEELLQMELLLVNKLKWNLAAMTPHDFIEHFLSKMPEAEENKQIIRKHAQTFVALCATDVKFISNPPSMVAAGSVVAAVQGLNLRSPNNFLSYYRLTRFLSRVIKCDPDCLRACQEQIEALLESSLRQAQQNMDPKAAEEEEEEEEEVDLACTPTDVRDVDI
Experiment [3] deals with T1, Cyclin-dependent kinase 4/cyclin D1. As to the kind of experiment: Inhibitory activity against Cyclin D1-cyclin-dependent kinase 4 in enzymatic assay by measuring phosphorylation of RbING. It counts as protein-complex assay.
A further experiment concerns HCT-116. As to the kind of experiment: In vitro antiproliferative activity against human carcinoma cell line HCT116 (colon). The class given is functional, cell-based.
Another experiment relates to NCI-H460. Put plainly: In vitro antiproliferative activity against human carcinoma cell line H460 (lung). The class given is functional, cell-based.
Experiment [4] concerns the target cAMP-dependent protein kinase (PKA) (Homo sapiens, UniProt P22694+P17612+P22612). As to the kind of experiment: Inhibitory activity against Protein kinase A (Histone). It counts as protein assay.

Structures are written as SMILES.

What is called IC50 is the concentration that gives 50% inhibition. Lower therefore signals higher potency.

Take `Cc1ccc2c(c1)[nH]c1c3ccc4ccn(C)c4c3c3c(c21)C(=O)NC3=O`: the IC50 is 320 nM in experiment [1]; 18 nM in experiment [2]; 48 nM in experiment [3]; 3840 nM with HCT-116; 3410 nM in the experiment on NCI-H460; over 20000 nM in experiment [4].
With `Cc1ccc2[nH]c3c4ccc5ccn(C)c5c4c4c(c3c2c1)C(=O)NC4=O`, the IC50 is 1070 nM in experiment [1]; 407 nM in experiment [2]; 393 nM in experiment [3]; 2870 nM in the experiment on HCT-116; 3350 nM in the experiment with NCI-H460; 4060 nM in experiment [4].
Take `Cn1ccc2ccc3c4[nH]c5cccc(CO)c5c4c4c(c3c21)C(=O)NC4=O`: the IC50 in experiment [1] was over 2000 nM; in experiment [2] it was 216 nM; in experiment [3] it was 155 nM; in the experiment on HCT-116 it was over 10000 nM; with NCI-H460, over 10000 nM; in experiment [4], over 20000 nM.
Take `COc1ccc2c(c1)[nH]c1c3ccc4cc[nH]c4c3c3c(c21)C(=O)NC3=O`: the IC50 in experiment [1] was 125 nM; in experiment [2], 36 nM; in experiment [3], 67 nM; in the experiment on HCT-116, 2160 nM; in the experiment on NCI-H460, 1920 nM; in experiment [4] it was 11400 nM.
As for `Cc1cc2ccn(C)c2c2c3c(c4c5ccccc5n(CCCCO)c4c12)C(=O)NC3=O`, the IC50 in experiment [3] was over 2000 nM; in the experiment on HCT-116, over 10000 nM; with NCI-H460, over 10000 nM; in experiment [4] it was 11700 nM.
For the compound `Cc1cc2ccn(C)c2c2c3c(c4c5ccc(F)cc5[nH]c4c12)C(=O)NC3=O`, the IC50 is 23 nM in experiment [1]; 6 nM in experiment [2]; 50 nM in experiment [3]; 580 nM in the experiment on HCT-116; 1020 nM in the experiment with NCI-H460; over 20000 nM in experiment [4].
Take `Cc1cc2ccn(C)c2c2c3c(c4c5ccccc5n(C)c4c12)C(=O)NC3=O`: the IC50 in experiment [1] was 267 nM; in experiment [2], 45 nM; in experiment [3], 92 nM; in the experiment with HCT-116 it was 4700 nM; in the experiment on NCI-H460 it was over 10000 nM; in experiment [4] it was 3900 nM.
With `Cn1ccc2ccc3c4[nH]c5cccc(Br)c5c4c4c(c3c21)C(=O)NC4=O`, the IC50 in experiment [2] was 136 nM; in experiment [3], 171 nM; in the experiment on HCT-116, 4710 nM; in the experiment on NCI-H460, 3520 nM; in experiment [4], over 20000 nM.
As to `O=C1NC(=O)c2c1c1c(ccc3cc[nH]c31)c1[nH]c3cc(OCc4ccccc4)ccc3c21`, the IC50 in experiment [2] was 378 nM; in experiment [3], 187 nM; in the experiment with HCT-116, over 10000 nM; in the experiment on NCI-H460 it was over 10000 nM.
As for `Cn1ccc2cc(F)c3c4[nH]c5ccccc5c4c4c(c3c21)C(=O)NC4=O`, the concentration for half-maximal inhibition (IC50) was 86 nM in experiment [1]; 16 nM in experiment [2]; 67 nM in experiment [3]; 3490 nM in the experiment on HCT-116; 2900 nM with NCI-H460; over 20000 nM in experiment [4].
For the compound `Cn1ccc2cc(F)c3c(c4c(c5c6ccccc6n(CCCO)c53)C(=O)NC4=O)c21`, the IC50 in experiment [2] turned out to be 448 nM; in experiment [3], 346 nM; with HCT-116 it was 2390 nM; in the experiment with NCI-H460, 2480 nM.
As for `Cn1ccc2ccc3c4[nH]c5cc(C(F)(F)F)ccc5c4c4c(c3c21)C(=O)NC4=O`, the IC50 in experiment [1] was 225 nM; in experiment [2] it was 9 nM; in experiment [3], 76 nM; in the experiment with HCT-116, over 10000 nM; in the experiment with NCI-H460 it was 3510 nM; in experiment [4], over 20000 nM.
As to `Cn1ccc2ccc3c4[nH]c5cc(C#N)ccc5c4c4c(c3c21)C(=O)NC4=O`, the half-maximal inhibitory concentration (IC50) is 10 nM in experiment [1]; 11 nM in experiment [2]; 29 nM in experiment [3]; over 10000 nM with HCT-116; over 10000 nM in the experiment with NCI-H460; over 20000 nM in experiment [4].
`Cn1ccc2ccc3c4[nH]c5cc(Br)ccc5c4c4c(c3c21)C(=O)NC4=O`: the IC50 in experiment [1] is 75 nM; in experiment [2] it was under 13 nM; in experiment [3] it was 38 nM; in the experiment with HCT-116, 1080 nM; in the experiment on NCI-H460 it was 720 nM; in experiment [4], over 20000 nM.
`Cn1ccc2ccc3c4[nH]c5cc(F)ccc5c4c4c(c3c21)C(=O)NC4=O`: the IC50 in experiment [1] was 9 nM; in experiment [2], 11 nM; in experiment [3], 38 nM; in the experiment with HCT-116, over 10000 nM; in the experiment on NCI-H460, over 10000 nM; in experiment [4], over 20000 nM.
On to `O=C1NC(=O)c2c1c1c3ccccc3[nH]c1c1[nH]c3ccccc3c21` [STAUROSPORINE AGLYCON], for which the IC50 in experiment [1] was found to be 897 nM; in experiment [3], 140 nM; in the experiment on HCT-116 it was 850 nM; in the experiment on NCI-H460, 590 nM.
In turn, `Cn1ccc2ccc3c4[nH]c5ccc(Br)cc5c4c4c(c3c21)C(=O)NC4=O` displayed an IC50 in experiment [3] of over 2000 nM.
With `O=C1NC(=O)c2c1c1c(ccc3cc[nH]c31)c1c2c2ccccc2n1CCCO`, the IC50 in experiment [1] was 8 nM; in experiment [2] it was 12 nM; in experiment [3] it was 66 nM; with HCT-116, 750 nM; in the experiment on NCI-H460, 1070 nM; in experiment [4], over 20000 nM.
Regarding `Cn1ccc2ccc3c4[nH]c5c(Br)cccc5c4c4c(c3c21)C(=O)NC4=O`, the IC50 in experiment [3] turned out to be 93 nM; in the experiment on HCT-116, 17100 nM; in the experiment on NCI-H460, 13800 nM.
For `Cc1cc2ccn(C)c2c2c3c(c4c5ccccc5n(CCCO)c4c12)C(=O)NC3=O`, the IC50 in experiment [3] is 673 nM; in the experiment with HCT-116, 3850 nM; with NCI-H460, 4750 nM.
On to `O=C1NC(=O)c2c1c1c(ccc3cc[nH]c31)c1[nH]c3ccccc3c21`, for which the IC50 in experiment [1] was 64 nM; in experiment [2] it was 22 nM; in experiment [3], 36 nM; with HCT-116 it was 1440 nM; in the experiment with NCI-H460, 1430 nM; in experiment [4], over 2000 nM.
Consider `COc1ccc2c(c1)[nH]c1c2c2c(c3c1c(C)cc1ccn(C)c13)C(=O)NC2=O`, for which the IC50 in experiment [1] was 57 nM; in experiment [2], 7 nM; in experiment [3], 42 nM; in the experiment with HCT-116 it was 1430 nM; with NCI-H460, 1300 nM; in experiment [4] it was over 20000 nM.
Turning to `Cc1cc2ccn(C)c2c2c3c(c4c5ccc(C(F)(F)F)cc5[nH]c4c12)C(=O)NC3=O`, the IC50 in experiment [1] was over 2000 nM; in experiment [2] it was 25 nM; in experiment [3], 92 nM; with HCT-116, 8780 nM; in the experiment on NCI-H460, 2420 nM; in experiment [4] it was over 20000 nM.
In the case of `Cn1ccc2ccc3c4[nH]c5ccc(C(F)(F)F)cc5c4c4c(c3c21)C(=O)NC4=O`, the results for the IC50 (in experiment [3]; with HCT-116; in the experiment with NCI-H460) were over 2000 nM, 7040 nM and 7850 nM, respectively.
As for `O=C1NC(=O)c2c1c1c(ccc3cc[nH]c31)c1[nH]c3cc(O)ccc3c21`, the IC50 in experiment [1] came to 6 nM; in experiment [2] it was 17 nM; in experiment [3] it was 37 nM; with HCT-116 it was 170 nM; with NCI-H460, 230 nM; in experiment [4] it was 949 nM.
Take `COc1ccc2c3c4c(c5c(ccc6ccn(C)c65)c3n(CCO)c2c1)C(=O)NC4=O`: the IC50 in experiment [1] turned out to be 101 nM; in experiment [2], 24 nM; in experiment [3] it was 47 nM; with HCT-116 it was 4070 nM; with NCI-H460 it was 1320 nM; in experiment [4], 1620 nM.
For `CCOc1ccc2c(c1)[nH]c1c3ccc4ccn(C)c4c3c3c(c21)C(=O)NC3=O`, the 50% inhibitory concentration (IC50) in experiment [1] was 324 nM; in experiment [2], 10 nM; in experiment [3], 44 nM; in the experiment with HCT-116, 2350 nM; in the experiment with NCI-H460, 3200 nM; in experiment [4], over 20000 nM.
As to `CCn1ccc2ccc3c(c4c(c5c6ccccc6n(CCCO)c35)C(=O)NC4=O)c21`, the IC50 in experiment [1] came out at 400 nM; in experiment [2] it was 90 nM; in experiment [3], 134 nM; with HCT-116, 1200 nM; in the experiment on NCI-H460, 1770 nM; in experiment [4], 5310 nM.
As for `Cn1ccc2ccc3c4[nH]c5cccc(F)c5c4c4c(c3c21)C(=O)NC4=O`, the IC50 was over 2000 nM in experiment [1]; 81 nM in experiment [2]; 71 nM in experiment [3]; over 2000 nM with HCT-116; over 10000 nM in the experiment with NCI-H460; over 20000 nM in experiment [4].
With `CCc1ccc2c(c1)[nH]c1c3ccc4ccn(C)c4c3c3c(c21)C(=O)NC3=O`, the IC50 is 22 nM in experiment [2]; 101 nM in experiment [3]; 3510 nM with HCT-116; 7490 nM in the experiment on NCI-H460; over 20000 nM in experiment [4].
For the compound `CCn1ccc2ccc3c4[nH]c5ccccc5c4c4c(c3c21)C(=O)NC4=O`, the IC50 in experiment [2] is 19 nM; in experiment [3], 59 nM; in the experiment with HCT-116 it was 4520 nM; with NCI-H460, over 10000 nM; in experiment [4], over 2000 nM.
Regarding `Cn1ccc2ccc3c4[nH]c5cc(OCc6ccccc6)ccc5c4c4c(c3c21)C(=O)NC4=O`, the IC50 was 328 nM in experiment [1]; 25 nM in experiment [2]; 123 nM in experiment [3]; 6520 nM with HCT-116; over 10000 nM in the experiment with NCI-H460; 3290 nM in experiment [4].
With `COc1cccc2[nH]c3c4ccc5ccn(C)c5c4c4c(c3c12)C(=O)NC4=O`, the IC50 in experiment [3] is over 2000 nM; in the experiment on HCT-116, over 10000 nM; in the experiment with NCI-H460, over 10000 nM.
As to `Cn1ccc2ccc3c4[nH]c5c(CCCO)cccc5c4c4c(c3c21)C(=O)NC4=O`, the concentration for half-maximal inhibition (IC50) in experiment [1] was 558 nM; in experiment [2], 40 nM; in experiment [3], 168 nM; in the experiment with HCT-116, 3020 nM; in the experiment with NCI-H460, 2350 nM; in experiment [4] it was over 20000 nM.
Regarding `COc1cccc2c1[nH]c1c3ccc4ccn(C)c4c3c3c(c21)C(=O)NC3=O`, the IC50 was over 2000 nM in experiment [1]; 40 nM in experiment [2]; 62 nM in experiment [3]; 1000 nM with HCT-116; 2710 nM with NCI-H460; over 20000 nM in experiment [4].

These data come from ChEMBL document CHEMBL1136094, “Novel, potent and selective cyclin D1/CDK4 inhibitors: indolo[6,7-a]pyrrolo[3,4-c]carbazoles” (Bioorg Med Chem Lett, 2003).
